The values that follow come from patent US10801035B2, “Plants having increased tolerance to herbicides” (BASF SE, priority 2011, dated 2020).

Test [1] has as its target T1, Hordeum HPPD variant L320Q (Hordeum vulgare, UniProt O48604, A164G/L320Q/R146V/R147D/R148G).
T1 construct: His6; made in house; host or cells: E. coli BL21 (DE3)
Kind of test: HPPD activity assay, Hordeum HPPD mutant L320Q. Format: biochemical. As to conditions: normalized on wildtype. The protocol: (§1) HPPD produces homogentisic acid and CO2 from 4-hydroxyphenylpyruvate (4-HPP) and O2. The activity assay for HPPD is based on the analysis of homogentisic acid by reversed phase HPLC.
(§2) The assay mixture can contain 150 mM potassium phosphate buffer pH 7.0, 50 mM L-ascorbic acid, 1 μM FeSO4 and 7 μg of purified enzyme in a total volume of 1 ml. Inhibitors are dissolved in DMSO (dimethylsulfoxide) to a concentration of 20 mM or 0.5 mM, respectively. From this stock solution serial five-fold dilutions are prepared in DMSO, which are used in the assay. The respective inhibitor solution accounts for 1% of the assay volume. Thus, final inhibitor concentrations range from 200 μM to 2.5 nM or from 5 μM to 63 pM, respectively. After a preincubation of 30 min the reaction is started by adding 4-HPP to a final concentration of 0.1 mM. […]
(§3) Inhibitors are dissolved in DMSO (dimethylsulfoxide) to a concentration of 0.5 mM. […] IC50 values are calculated using non-linear regression.
(§4) Purified, mutant HPPD enzymes are obtained by the methods described above. […] Apparent michaelis constants (Km) and maximal reaction velocities (Vmax) are calculated by non-linear regression with the software GraphPad Prism 5 (GraphPad Software, La Jolla, USA) using a substrate inhibition model. […] Weighted means (by standard error) of Km and […] values are calculated from at least three independent experiments. […]

The target of test [2] is T2, Hordeum HPPD variant L320H, P321A (Hordeum vulgare, UniProt O48604, L320H/P321A).
T2 construct: His6; made in house; host or cells: E. coli BL21 (DE3)
The test can be described thus: HPPD activity assay, Hordeum HPPD mutant L320H, P321A. The format is biochemical. As to conditions: normalized on wildtype. The procedure:
as §1, §2, §3, §4

In test [3] the target is T3, Hordeum HPPD variant L353M, P321R, V212I (Hordeum vulgare, UniProt O48604, L353M/P321R/V212I).
T3 construct: His6; made in house; host or cells: E. coli BL21 (DE3)
Kind of test: HPPD activity assay, Hordeum HPPD mutant L353M, P321R, V212I. The format is biochemical. As to conditions: normalized on wildtype. The protocol: as §1, §2, §3, §4

In test [4] the test system is Wild type soybean plants. The test can be described thus: Greenhouse herbicide spray test, non-transformed soybean cuttings. Format: in vivo, Glycine max. As to conditions: Wild type (no transgene), two weeks after herbicide treatment. The protocol:
Transgenic plants expressing heterologous HPPD or HST enzymes are tested for tolerance against coumarone-derivative herbicides in greenhouse experiments.
For post emergence treatment, the test plants are first grown to a height of 3 to 15 cm, depending on the plant habit, and only then treated with the herbicides. For this purpose, the test plants are either sown directly and grown in the same containers, or they are first grown separately and transplanted into the test containers a few days prior to treatment.
For testing of T0 plants, cuttings can be used. In the case of soybean plants, an optimal shoot for cutting is about 7.5 to 10 cm tall, with at least two nodes present. Each cutting is taken from the original transformant (mother plant) and dipped into rooting hormone powder (indole-3-butyric acid, IBA). The cutting is then placed in oasis wedges inside a bio-dome. Wild type cuttings are also taken simultaneously to serve as controls. The cuttings are kept in the biodome for 5-7 days and then transplanted to pots and then acclimated in the growth chamber for two more days. Subsequently, the cuttings are transferred to the greenhouse, acclimated for approximately 4 days, and then subjected to spray tests as indicated.
Depending on the species, the plants are kept at 10-25° C. or 20-35° C. The test period extends over 3 weeks. During this time, the plants are tended and their response to the individual treatments is evaluated. Herbicide injury evaluations are taken at 2 and 3 weeks after treatment. Plant injury is rated on a scale of 0 to 9, 0 being no injury and 9 being complete death. Tolerance to coumarone-derivative herbicides can also be assessed in Arabidopsis. In this case transgenic Arabidopsis thaliana plants are assayed for improved tolerance to coumarone-derivative herbicides in 48-well plates. […] Seven to ten days after seeding growth inhibition is evaluated by comparison to wild type plants. Tolerance factor is calculated by dividing the plant growth IC50 value of transgenic plants containing a HPPD and/or HST sequence by that of wildtype plants. […]

SMILES strings stand for the structures.

T3 sequence (O48604 whole entry R146V/R147D/R148G/A164G/V212I/P321R/L353M): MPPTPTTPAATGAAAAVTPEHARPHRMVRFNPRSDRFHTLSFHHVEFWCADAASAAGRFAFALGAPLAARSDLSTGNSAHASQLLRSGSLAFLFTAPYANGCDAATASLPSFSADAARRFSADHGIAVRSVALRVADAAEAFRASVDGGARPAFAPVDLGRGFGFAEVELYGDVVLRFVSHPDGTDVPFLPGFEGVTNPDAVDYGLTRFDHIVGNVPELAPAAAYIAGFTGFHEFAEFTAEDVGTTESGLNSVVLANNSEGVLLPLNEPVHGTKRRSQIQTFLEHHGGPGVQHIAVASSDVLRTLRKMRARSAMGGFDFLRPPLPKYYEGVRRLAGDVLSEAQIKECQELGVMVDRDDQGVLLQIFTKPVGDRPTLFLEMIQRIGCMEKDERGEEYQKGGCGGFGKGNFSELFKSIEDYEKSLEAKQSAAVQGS
T1 sequence (O48604 whole entry R146V/R147D/R148G/A164G/L320Q): as the sequence (O48604 whole entry R146V/R147D/R148G/A164G/V212I/P321R/L353M) above, with I212V, L320Q, R321P, M353L counted along it
T2 sequence (O48604 whole entry R146V/R147D/R148G/A164G/L320H/P321A): as the sequence (O48604 whole entry R146V/R147D/R148G/A164G/V212I/P321R/L353M) above, with I212V, L320H, R321A, M353L counted along it

`CC1=NOC(c2c(Cl)ccc(C3=C(O)c4ncccc4N(CC(F)F)S3(=O)=O)c2Cl)C1` (stereo not drawn) [Inhibitor 1, 3-[2,4-dichloro-3-(3-methyl-4,5-dihydroisoxazol-5-yl)phenyl]-1-(2,2-difluoroethyl)-2,2-dioxo-pyrido[3,2-c]thiazin-4-ol]: the “Normalized tolerance index (TI)” value in test [1] is recorded as 3.4; in test [2], 6.5; in test [3], 2.3. In addition, the Injury evaluation worked out at 26 in test [4] (dose 62 g/ha), 44 in test [4] (dose 125 g/ha) and 68 in test [4] (dose 250 g/ha).
For the compound `O=S1(=O)C(c2c(Cl)cc(Cl)nc2Cl)=C(O)c2ncccc2N1CC(F)F` [Inhibitor 2, 1-(2,2-difluoroethyl)-2,2-dioxo-3-(2,4,6-trichloro-3-pyridyl)pyrido[3,2-c]thiazin-4-ol], the “Normalized tolerance index (TI)” value stood at 1.8 in test [1], 3.7 in test [2] and 3 in test [3].
